Series [1] addresses T1, sfl-HuR (soluble form of full length HuR) (Homo sapiens, UniProt Q15717).
T1 construct: made in house; host or cells: E. coli ER2566
The series is described as follows: 2D-FIDA-r anisotropy assay: titration of fluorescently labeled ARE RNA fragments against sfl-HuR. Type of series: binding. The following applies: 2D-FIDA-r assay, RNA fragment 5'-terminally labeled with 5'-carboxy-TMR; for Kd: read-out: Kd sfl-HuR in nM +/- St. dev. How it is done: (§1) In a preferred embodiment an assay of the present invention is performed by use of 2 dimensional-FIDA anisotropy analysis, wherein the fluorescence anisotropy of the complex between mRNA and HuR is determined at single molecule sensitivity by extension of the microscopic confocal detection setup to two polarisation channels.
(§2) Titration of fluorescently labeled RNA fragments corresponding to the AREs of, for example, IL-2, IL-4, IL-8, Cox-2, IL-1β or TNF-α (5′-terminally labeled with 5′-carboxy-TMR and 33, 58, 26, 35, 33 and 34 nts in length, respectively), against increasing concentrations of a soluble form of recombinant full-length HuR or HuR12 is performed.
(§3) In vitro, individual AU rich elements are bound to HuR with different affinity, although they are derived from mRNA targets which are known to be associated with HuR-mediated regulation. This fragment selectivity is retained when the third RRM as well as the hinge region are missing as is the case for HuR12. […] However, the full length protein binds to all fragments with a higher affinity. The Kd is lower by an almost constant factor of 50. In contrast, the low affinity fragments (Kd for HuR12>1 μM) are no longer recognized by the full length protein at all (see TABLE 1).

Another series deals with T2, HuR12 (Homo sapiens, UniProt Q15717).
T2 construct: Mxe-intein-CBD tag (IMPACT-TWIN, pTWIN1) (C, cleaved yes); 2-MESNA thioester on the C-terminal carboxyl group (>95% of the material); made in house; host or cells: E. coli ER2566 (pTWIN1/HuR12)
The series is described as follows: 2D-FIDA-r anisotropy assay: titration of fluorescently labeled ARE RNA fragments against HuR12. In kind it is binding. The following applies: 2D-FIDA-r assay, RNA fragment 5'-terminally labeled with 5'-carboxy-TMR; for Kd: read-out: Kd HuR12 in nM +/- St. dev. The protocol:
as §1, §2, §3

A short description of series [2]: Solubility: no aggregation and precipitation in aqueous buffer (size exclusion chromatography and/or UV-spectroscopy). In kind it is physicochemical. The following applies: aqueous buffer of physiological pH; for concentration at which no aggregation and precipitation is seen: spectroscopy-compatible conditions. How it is done: The concentration of protein used in an assay of the present invention depends on the binding affinity between a specific mRNA (fragment) and HuR, e.g. the protein concentration used in an assay of the present invention may be lower in case there is a high binding affinity between the two species or vice versa. Solvent include aqueous solvent, e.g. buffer solution, e.g. aqueous physiological buffer solution.
Expression of the cloned HuR-Intein-CBD fusion protein is induced by addition of 1 mM IPTG to a bacterial culture grown to late-logarithmic phase in LB broth medium and allowed to proceed for 6 hours at 28°. The bacterial cells are lysed by successive freezing/thawing cycles in a buffer of 20 mM Tris/Cl pH 8.0, 800 mM NaCl, 1 mM EDTA and 0.2% Pluronic F-127 (Molecular Probes). After DNA digestion, the bacterial lysates are cleared by ultracentrifugation and the fusion protein is captured onto chitin agarose beads (New England Biolabs) via the CBD. After extensive washing of the beads with lysis buffer, the recombinant protein is recovered by thiol-induced on-column self-splicing of the intein tag by addition of Na-2-MESNA to a final concentration of 50 mM and incubation for 12 hours at 4°. Any co-eluted intein tag and un-cleaved fusion protein are removed from the eluate in a second, subtractive affinity step. […]
The quality of the purified protein is controlled by denaturing SDS-PAGE, UV-spectroscopy, analytical Size Exclusion Chromatography, RP-HPLC analysis, LC/ESI-MS analysis and CD-spectroscopy, following standard protocols as described in example 2. […] Results from UV-spectroscopy, showing no absorbance at >330 nm, and analytical size exclusion chromatography, where HuR elutes as a single peak with a maximum at 24.2 kD, provide evidence that no higher aggregation states of the protein are present at the given buffer concentrations.
The folding of the protein after the purification procedure as well as following fluorescent labeling is monitored by CD-Spectroscopy.
(In general: SEC sorts molecules by how far they enter the pores of the column.)

Another series has as its target T3, full length HuR (Homo sapiens, UniProt Q15717).
T3 construct: made in house; host or cells: E. coli ER2566
The series is described as follows: Deduction of the HuR binding site: affinities of RNA fragments to full length HuR. The protocol: Individual RNA fragments are synthesized and the affinities (given as Kd values) to full length HuR are determined (see TABLE 2). […] An influence of the fluorescent dye is excluded by competition experiments with unlabeled RNA fragments. […] Fragments 5, 6, 7a-7d and 8a-8c serve to tests tolerance for non-Uracil (exemplified by A=adenine) and C, respectively, at the depicted (bold and underlined) positions. […] This interaction appears to follow an all-or-nothing mechanism: While sequences with single mismatches are not recognized, sequences fulfilling this motif are bound with high affinity and an invariable Kd, Kdfund, of 0.99 nM.

T2 sequence (Q15717 2-189): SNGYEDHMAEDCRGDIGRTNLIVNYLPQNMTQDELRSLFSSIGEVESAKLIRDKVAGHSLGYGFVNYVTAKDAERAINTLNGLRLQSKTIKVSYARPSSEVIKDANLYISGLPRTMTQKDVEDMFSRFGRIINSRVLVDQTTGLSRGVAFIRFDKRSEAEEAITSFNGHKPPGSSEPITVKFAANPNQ
T1 sequence (Q15717 whole entry): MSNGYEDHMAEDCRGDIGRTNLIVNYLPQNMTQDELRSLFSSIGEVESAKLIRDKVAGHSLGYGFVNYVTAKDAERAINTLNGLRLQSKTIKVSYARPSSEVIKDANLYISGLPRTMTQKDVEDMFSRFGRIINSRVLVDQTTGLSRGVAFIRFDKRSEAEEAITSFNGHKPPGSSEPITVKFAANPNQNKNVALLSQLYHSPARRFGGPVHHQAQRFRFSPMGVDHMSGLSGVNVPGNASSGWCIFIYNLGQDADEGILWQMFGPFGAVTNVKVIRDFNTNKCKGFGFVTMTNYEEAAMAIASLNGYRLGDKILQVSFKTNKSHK
T3 sequence (Q15717 whole entry): as above

Take “AUUAUUUAUUAUUUAUUUAUUAUUUAUUUAUUUA (chemistry not given here) [TNF-α, synthetic RNA fragment of the TNF-α ARE, 5'-terminally labeled with 5'-carboxy-TMR]”: the Kd in series [1] is 0.35 nM; with HuR12 it was 21.4 nM.

Take “wild-type full length HuR: unmodified wild-type full length HuR protein”: the “solubility in aqueous solvent (in words)” value in series [2] (without micelle-forming detergents or glycerol, protein >0.5 μM) is “practically insoluble”.

On to “UAUUUAUUUAAAUAUUUAAAUUUUAUAUUUAUU (chemistry not given here) [IL-2, synthetic RNA fragment of the IL-2 ARE, 5'-TMR labeled]”, for which the Kd stood at 9.5 nM in series [1] and 498 nM in the series with HuR12.

For the substance “UAUUUAUUAUUUAUGUAUUUAUUUAA (chemistry not given here) [IL-8, synthetic RNA fragment of the IL-8 ARE, 5'-TMR labeled]”, the Kd was determined as 1.09 nM in series [1] and 42.9 nM with HuR12.

On to “HuR12: HuR variant encompassing the first two RRMs, aa1-189 or aa2-189 of SEQ ID NO:1”, for which, in series [2], the “concentration at which no aggregation and precipitation is seen” value was more than 100 µM.

Turning to “sfl-HuR: full-length human HuR (SEQ ID NO:1 or 2) whose C-terminal amino acid is esterified by Na-2-MESNA as a thioester”, the “concentration at which no aggregation and precipitation is seen” value in series [2] is more than 0.5 µM.

Take “AUUUUAAUUUAUGAGUUUUUGAUAGCUUUAUUUUUUAAGUAUUUAUAUAUUUAUAA (chemistry not given here) [IL-4, synthetic RNA fragment of the IL-4 ARE, 5'-TMR labeled]”: the Kd in series [1] stood at 3.21 nM; in the series with HuR12, 154 nM.

As for “4d (AUUUAUUUAUUUA; chemistry not given here)”, in the series with full length HuR (binding to full length HuR), the “Kd (in nM)” value was “not bound”.

In the case of “UAGAGUUCAUCGCAAUUGCAC (chemistry not given here) [irrelevant seq., reference compound]”, in series [1], the “Kd sfl-HuR in nM +/- St. dev.” value is on record as “n.b”. In the series with HuR12, the “Kd HuR12 in nM +/- St. dev.” value is “n.b”.

As for “4c (AUUUAUUUAUUUA; chemistry not given here)”, in the series with full length HuR (binding to full length HuR), the “Kd (in nM)” value is reported as “not bound”.

In the case of “UAUUUAUUUAUUUAUUUGUUUGUUUGUUUUAUU (chemistry not given here) [IL-1β, synthetic RNA fragment of the IL-1β ARE, 5'-TMR labeled]”, the Kd is 0.12 nM in series [1] and 18.4 nM in the series with HuR12.

As for “AUUUAUUUAUUUAUUUAUUUA (chemistry not given here) [(AUUU)5A]”, the Kd in series [1] stood at 0.4 nM; in the series with HuR12, 23.5 nM.

In the case of “4a (AUUUAUUUAUUUA; chemistry not given here)”, in the series with full length HuR (binding to full length HuR), the Kd turned out to be 0.0014 µM and the “Kd (in nM)” value is recorded as “not bound”.

For the substance “AUUAUUAUUAUUAUUA (chemistry not given here) [(AUU)5A]”, in series [1], the “Kd sfl-HuR in nM +/- St. dev.” value is “n.b”. In addition, the Kd with HuR12 was 1590 nM.

As for “UAUUAAUUUAAUUAUUUAAUAAUAUUUAUAUUAAA (chemistry not given here) [Cox-2 (2), synthetic RNA fragment of the Cox-2 ARE, 5'-TMR labeled]”, the Kd in series [1] was 13.6 nM; in the series with HuR12, 229 nM.

Regarding “AUUUAUUUAUUUAUUUA (chemistry not given here) [(AUUU)4A]”, the Kd stood at 2.09 nM in series [1] and 126 nM with HuR12.

As for polyU [reference compound], at full length HuR (full length HuR), the “binding / recognition by HuR (in words)” value is recorded as “bound by HuR with high affinity”.

The values above are taken from US7399583B2, “Method for the identification of inhibitors of the binding of ARE-containing mRNA and a HuR protein” (Novartis AG, priority 2002, dated 2008).
